These are literature values, as cited in paper PMC11730002 (Turkish Journal of Pharmaceutical Sciences, 2025).

Data set [1] has as its target T1, pancreatic lipase (Sus scrofa, UniProt P00591).
T1 sequence (P00591 1-450): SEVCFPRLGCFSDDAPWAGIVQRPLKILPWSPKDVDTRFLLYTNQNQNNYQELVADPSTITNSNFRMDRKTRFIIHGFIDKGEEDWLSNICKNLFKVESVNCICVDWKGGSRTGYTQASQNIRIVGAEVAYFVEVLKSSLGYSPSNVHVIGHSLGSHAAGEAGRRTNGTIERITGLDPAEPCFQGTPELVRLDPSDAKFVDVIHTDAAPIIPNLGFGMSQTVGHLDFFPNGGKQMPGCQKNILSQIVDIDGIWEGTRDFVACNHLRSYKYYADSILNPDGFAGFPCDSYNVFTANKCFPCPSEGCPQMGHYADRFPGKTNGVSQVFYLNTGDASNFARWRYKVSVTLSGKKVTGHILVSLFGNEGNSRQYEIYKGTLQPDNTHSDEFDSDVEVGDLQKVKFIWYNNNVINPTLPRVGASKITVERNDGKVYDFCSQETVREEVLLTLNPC
The note with it: read-out: Pancreatic lipase inhibition IC50; in vitro study.

The target of data set [2] is lipase. The note with it: read-out: Lipase inhibitory activity IC50.

`O=C(/C=C/c1ccc(O)c(O)c1)O[C@H](Cc1ccc(O)c(O)c1)C(=O)O` [Rosmarinic acid]: the figures for the IC50 in data set [1] and in data set [2] were 347 µM and 62.8 ± 2.7 µM, respectively.
